One series has as its system B16-F10. The experiment in a line: Antimelanogenic activity in mouse B16F10 cells assessed as inhibition of alpha-MSH-induced melanin formation at 40 to 120 uM after 72 hrs by spectrophotometry. Type of series: functional, cell-based.
In series [1] the target is T1, Tyrosinase (Mus musculus) (UniProt P11344).
T1 sequence (whole entry): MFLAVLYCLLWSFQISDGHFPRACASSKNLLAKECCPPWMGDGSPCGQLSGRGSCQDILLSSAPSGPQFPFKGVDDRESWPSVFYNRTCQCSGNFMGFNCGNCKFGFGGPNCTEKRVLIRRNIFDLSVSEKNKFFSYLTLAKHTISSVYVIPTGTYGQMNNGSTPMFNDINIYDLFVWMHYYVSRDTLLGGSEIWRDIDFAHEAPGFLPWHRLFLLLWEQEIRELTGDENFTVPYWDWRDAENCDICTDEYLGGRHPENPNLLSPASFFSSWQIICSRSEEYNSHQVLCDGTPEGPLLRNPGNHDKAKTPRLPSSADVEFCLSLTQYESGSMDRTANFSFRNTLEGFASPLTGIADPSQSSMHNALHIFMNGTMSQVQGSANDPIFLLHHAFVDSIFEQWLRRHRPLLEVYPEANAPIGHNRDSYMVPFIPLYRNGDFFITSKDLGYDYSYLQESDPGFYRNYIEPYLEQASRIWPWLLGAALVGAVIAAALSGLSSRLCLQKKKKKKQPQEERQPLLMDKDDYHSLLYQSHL
The experiment in a line: Inhibition of tyrosinase in alpha-MSH-stimulated mouse B16F10 cells assessed as inhibition of L-DOPA oxidation at 40 to 120 uM after 72 hrs by spectrophotometry. Type of series: cell-based. The conditions noted are these: B16-F10.

The nature of series [2]: Cytotoxicity against mouse B16F10 cells assessed as cell viability at 40 to 120 uM after 72 hrs by MTT assay. Type of series: cell-based, B16-F10. (Formazan colour is commonly taken as a measure of viable cells.)
The target of the next series is T2, Tyrosinase (Agaricus bisporus, UniProt O42713).
T2 sequence (O42713 whole entry): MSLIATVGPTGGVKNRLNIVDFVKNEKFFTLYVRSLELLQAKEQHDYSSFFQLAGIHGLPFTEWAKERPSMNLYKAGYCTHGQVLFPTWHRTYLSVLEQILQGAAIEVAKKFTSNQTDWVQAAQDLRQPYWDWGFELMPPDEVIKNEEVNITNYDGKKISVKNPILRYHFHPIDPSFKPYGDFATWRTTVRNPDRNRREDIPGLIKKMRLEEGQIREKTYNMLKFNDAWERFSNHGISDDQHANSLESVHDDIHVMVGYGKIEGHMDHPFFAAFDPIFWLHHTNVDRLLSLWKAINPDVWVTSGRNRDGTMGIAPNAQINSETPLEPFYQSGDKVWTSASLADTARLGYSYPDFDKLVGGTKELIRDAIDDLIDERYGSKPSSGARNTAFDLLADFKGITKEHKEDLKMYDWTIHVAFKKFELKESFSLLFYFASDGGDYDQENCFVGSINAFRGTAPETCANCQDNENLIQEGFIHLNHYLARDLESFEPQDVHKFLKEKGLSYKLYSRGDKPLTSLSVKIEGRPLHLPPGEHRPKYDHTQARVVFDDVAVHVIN
The experiment in a line: (§1) Inhibition of mushroom tyrosinase hydroxylation activity using L-tyrosine as substrate after 30 mins by spectrophotometry.

In series [3] the target is T3, Tyrosinase (Agaricus bisporus) (UniProt O42713).
T3 sequence (whole entry): T2 sequence (O42713 whole entry)
The description is as §1.

Series [4] has as its target T3, Tyrosinase (Agaricus bisporus). The experiment in a line: Non-competitive inhibition of mushroom tyrosinase assessed as inhibition of dopachrome formation by Lineweaver-Burk plot analysis.
Series [5] has the same target. The experiment in a line: Inhibition of mushroom tyrosinase hydroxylation activity using L-tyrosine as substrate at 120 uM after 30 mins by spectrophotometry.

What is called inhibition is the relative decrease from the control value, in per cent. Usually viability stands for a per cent measure of how many cells are alive, often set against a control. One may read the IC50 as the concentration at which inhibition is half-maximal. A low value points to higher potency.

Calls of active or inactive are those of the source. The rule behind the calls is not given here. Some results are limits rather than exact numbers.

Take `OC[C@H]1O[C@@H](Oc2ccc(O)cc2)[C@H](O)[C@@H](O)[C@@H]1O`: the outcome in the series with B16-F10 was Active. The inhibition entry in series [1] is “Active”.
`Oc1cc(O)cc(Oc2c(O)cc(O)c3c2Oc2c(O)cc(Oc4c(O)cc(Oc5c(O)cc(O)c6c5Oc5c(O)cc(O)cc5O6)cc4O)cc2O3)c1` [DIECKOL]: the outcome with B16-F10 was Active. In series [2], the viability at 72 h, up to 120 µM was above 95%. The same compound displayed a concentration for half-maximal inhibition (IC50) against Tyrosinase of 20 µM. Further, the inhibition entry in series [3] was “Dose-dependent effect”; in series [5] it was 89.3%. Further, the inhibition entry in series [1] and in series [4] was “Active” each time.

Source of the values: ChEMBL document CHEMBL1926566, “Molecular docking studies of a phlorotannin, dieckol isolated from Ecklonia cava with tyrosinase inhibitory activity” (Bioorg Med Chem, 2012).
